Test results from US20250100977A1, “MERCAPTOPYRIMIDINE COMPOUNDS THAT INHIBIT NONHOMOLOGOUS END JOINING AND METHODS THEREOF” (INDIAN INSTITUTE OF SCIENCE, priority 2021, published 2025).

What was measured:
[1] = target: T1, Ligase I (Homo sapiens, UniProt P18858); assay: Inhibition of end joining by purified Ligase I; format: biochemical; conditions: up to highest concentration of 1000 μM
T1 construct: made in house; host or cells: bacteria
Procedure: (§1) The compounds of the present invention were analysed for inhibition of end joining with purified Ligase I (FIG. 3A) and Ligase III/XRCC1 (FIG. 3F). The compounds were incubated with either purified Ligase I (FIG. 3B-E) or with Ligase III/XRCC1 (FIGS. 3G-J) in suitable NHEJ buffer at 25° C. for 30 min, followed by addition of radiolabeled DNA, and further incubation for 1 h at 25° C. Products were purified using phenol: chloroform, and run on denaturing PAGE.
(§2) Effects of these compounds on NHEJ and Ligase IV mediated joining were evaluated (FIG. 4A-K). The reactions were terminated by EDTA (10 mM), products were purified using phenol/chloroform, precipitated with chilled ethanol and glycogen, and resolved on 8% denaturing PAGE. The gel was dried, exposed, and signal was detected using phosphor Imager FLA9000 (Fuji, Japan), and quantified in MultiGauge software expressed as Photo Stimulated Luminescence Units (PSLU). Inhibition of end joining was reported at 200 μM and 100 μM, respectively for SCR116 and SCR132 (FIGS. 4A, B, C and D), with >50% inhibition at 200 and 100 μM concentrations, respectively. […] FIG. 4K depict the purification profile of Ligase IV and XRCC4. […]

[2] = target: T2, Ligase III/XRCC1 (Homo sapiens, UniProt P49916); assay: Inhibition of end joining by purified Ligase III/XRCC1; format: biochemical; conditions: 50, 100, 200, 500, 1000 μM
T2 construct: made in house
Procedure: as §1, §2

[3] = system: CEM; assay: Cytotoxicity in CEM; format: cell-based; conditions: Homo sapiens, CCRF-CEM; Table 2; read-out: IC50 in cancer cell lines, CEM
Procedure: (§3) Ligase IV specificity of the compounds of the present invention inside the cells were also determined using Ligase IV knock out (KO) cell line N114 compared to the wild type Nalm6 (Table 2, FIGS. 5C, D, E and F). […] Table 1 showing IC50 of SCR7 derivatives in cancer cell lines Nalm6 and HeLa. IC50 was calculated using GraphPad Prism software from the percentage of viable cells following treatment with the compounds at 48 h. Table 2 showing IC50 of SCR116 and SCR132 in a panel of 16 cancer cell lines.

[4] = system: HCT116; assay: Cytotoxicity in HCT116; format: cell-based; conditions: Homo sapiens, HCT-116; Table 2; read-out: IC50 in cancer cell lines, HCT116
Procedure: as §3

[5] = system: L1210; assay: Cytotoxicity in L1210; format: cell-based; conditions: Mus musculus, L1210; Table 2; read-out: IC50 in cancer cell lines, L1210
Procedure: as §3

[6] = system: Molt4; assay: Cytotoxicity in Molt4; format: cell-based, human; conditions: Homo sapiens, MOLT-4; Table 2; read-out: IC50 in cancer cell lines, Molt4
Procedure: as §3

[7] = system: Dalton's Lymphoma (DLA) tumor; assay: Mice allograft model, Dalton's Lymphoma (DLA); format: in vivo; conditions: for Tumor burden: oral, 15 and 25 mg/kg, pilot
Procedure: The effect of oral dose of the compounds of the present disclosure on mice Erlich Ascites Carcinoma (EAC) and Dalton's Lymphoma (DLA) tumors were also evaluated (FIGS. 10A-F).

[8] = system: B cells (CD19+) and T cells (CD3+); assay: B and T cells after 28 days SCR116 treatment; format: in vivo, swiss albino mice; conditions: oral 80, 160 and 320 mg/kg b.wt.
Procedure: FIG. 14(A-B) depicts the evaluation of effect on B cells after SCR 116 treatment for 28 days in normal swiss albino mice A. After oral administration of low, medium, and high concentrations of SCR116 (80, 160 and 320 mg/kg b.wt. respectively). B is showing quantitation of the total B cell population (CD19+). (ns: not significant, *p<0.05: **p<0.005), in accordance with an implementation of the present disclosure.
FIG. 15(A-B) depicts the evaluation of the effect on T cells after SCR116 treatment for 28 days in normal swiss albino mice. A. After oral administration of low, medium and high concentrations of SCR116 (80, 160 and 320 mg/kg b.wt. respectively). B. is showing the quantitation of the total T cell population (CD3+). (ns: not significant, *p<0.05: **p<0.005), in accordance with an implementation of the present disclosure.
FIG. 13 depicts the blood parameters analysis of Swiss albino mice after 10 days of dose-ranging study after treating with SCR116 and SCR132. A. RBC (n=3). B. Hemoglobin (n=3). C. MCHC (n=3). D. Total leukocyte count (n=3). E. Platelet count (n=3) (ns: not significant, *p<0.05: **p<0.005).

[9] = mouse, in vivo, po
Procedure: The bioavailability of the compounds of the present disclosure were analysed in mice serum at different time points (0.5, 1, 2, 4, 6, 8, 10, 12, 24 and 48 h) by HPLC at 232 nm wavelength (FIGS. 10N-P).

T1 sequence (P18858 whole entry): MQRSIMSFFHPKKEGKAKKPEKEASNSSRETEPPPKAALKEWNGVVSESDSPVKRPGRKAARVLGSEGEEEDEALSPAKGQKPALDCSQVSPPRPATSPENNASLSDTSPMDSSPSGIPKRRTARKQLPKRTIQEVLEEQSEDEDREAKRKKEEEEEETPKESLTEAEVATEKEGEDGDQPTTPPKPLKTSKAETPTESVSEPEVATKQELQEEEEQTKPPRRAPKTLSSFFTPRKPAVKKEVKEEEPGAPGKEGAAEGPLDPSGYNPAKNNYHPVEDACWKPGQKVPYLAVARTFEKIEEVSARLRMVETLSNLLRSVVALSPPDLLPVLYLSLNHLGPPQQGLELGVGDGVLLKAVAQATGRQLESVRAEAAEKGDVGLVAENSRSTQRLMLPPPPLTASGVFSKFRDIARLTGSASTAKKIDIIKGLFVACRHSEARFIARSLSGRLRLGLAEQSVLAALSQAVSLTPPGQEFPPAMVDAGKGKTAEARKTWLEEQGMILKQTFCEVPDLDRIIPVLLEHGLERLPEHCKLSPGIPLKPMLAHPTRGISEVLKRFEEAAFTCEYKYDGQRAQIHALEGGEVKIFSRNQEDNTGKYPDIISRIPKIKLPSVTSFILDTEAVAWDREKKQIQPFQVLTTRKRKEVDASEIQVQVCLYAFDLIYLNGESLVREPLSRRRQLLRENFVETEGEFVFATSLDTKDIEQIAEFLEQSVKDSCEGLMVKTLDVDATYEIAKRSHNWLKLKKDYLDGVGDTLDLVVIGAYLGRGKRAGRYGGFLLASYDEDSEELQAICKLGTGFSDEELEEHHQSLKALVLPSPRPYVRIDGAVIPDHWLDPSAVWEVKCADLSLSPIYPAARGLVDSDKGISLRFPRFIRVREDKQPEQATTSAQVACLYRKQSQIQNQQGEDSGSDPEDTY
T2 sequence (P49916 43-1009): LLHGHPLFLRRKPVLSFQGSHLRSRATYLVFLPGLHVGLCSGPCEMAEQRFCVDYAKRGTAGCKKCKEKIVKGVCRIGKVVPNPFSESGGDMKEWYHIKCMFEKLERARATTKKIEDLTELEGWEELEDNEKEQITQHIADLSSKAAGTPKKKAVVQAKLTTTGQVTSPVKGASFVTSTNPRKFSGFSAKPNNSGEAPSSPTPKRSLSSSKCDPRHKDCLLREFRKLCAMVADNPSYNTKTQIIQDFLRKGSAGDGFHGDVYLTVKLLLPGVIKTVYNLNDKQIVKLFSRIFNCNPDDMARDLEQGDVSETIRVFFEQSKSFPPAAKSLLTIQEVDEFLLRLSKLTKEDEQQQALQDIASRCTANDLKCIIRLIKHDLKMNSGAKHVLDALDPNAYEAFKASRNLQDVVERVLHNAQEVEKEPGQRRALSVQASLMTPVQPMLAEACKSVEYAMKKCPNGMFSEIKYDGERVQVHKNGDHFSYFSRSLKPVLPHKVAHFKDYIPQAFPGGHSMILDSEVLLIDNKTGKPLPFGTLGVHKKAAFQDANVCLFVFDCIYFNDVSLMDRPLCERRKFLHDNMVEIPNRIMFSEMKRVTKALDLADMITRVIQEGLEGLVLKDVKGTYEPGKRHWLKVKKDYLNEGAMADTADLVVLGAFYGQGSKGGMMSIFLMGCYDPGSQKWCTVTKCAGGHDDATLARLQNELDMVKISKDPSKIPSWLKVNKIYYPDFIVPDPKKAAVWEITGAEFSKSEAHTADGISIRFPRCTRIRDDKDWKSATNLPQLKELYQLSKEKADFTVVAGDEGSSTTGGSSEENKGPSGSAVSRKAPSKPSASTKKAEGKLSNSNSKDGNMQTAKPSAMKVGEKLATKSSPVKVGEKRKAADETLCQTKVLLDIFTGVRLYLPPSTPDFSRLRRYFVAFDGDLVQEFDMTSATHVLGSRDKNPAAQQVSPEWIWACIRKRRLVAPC
T2 sequence (P18887 whole entry partner): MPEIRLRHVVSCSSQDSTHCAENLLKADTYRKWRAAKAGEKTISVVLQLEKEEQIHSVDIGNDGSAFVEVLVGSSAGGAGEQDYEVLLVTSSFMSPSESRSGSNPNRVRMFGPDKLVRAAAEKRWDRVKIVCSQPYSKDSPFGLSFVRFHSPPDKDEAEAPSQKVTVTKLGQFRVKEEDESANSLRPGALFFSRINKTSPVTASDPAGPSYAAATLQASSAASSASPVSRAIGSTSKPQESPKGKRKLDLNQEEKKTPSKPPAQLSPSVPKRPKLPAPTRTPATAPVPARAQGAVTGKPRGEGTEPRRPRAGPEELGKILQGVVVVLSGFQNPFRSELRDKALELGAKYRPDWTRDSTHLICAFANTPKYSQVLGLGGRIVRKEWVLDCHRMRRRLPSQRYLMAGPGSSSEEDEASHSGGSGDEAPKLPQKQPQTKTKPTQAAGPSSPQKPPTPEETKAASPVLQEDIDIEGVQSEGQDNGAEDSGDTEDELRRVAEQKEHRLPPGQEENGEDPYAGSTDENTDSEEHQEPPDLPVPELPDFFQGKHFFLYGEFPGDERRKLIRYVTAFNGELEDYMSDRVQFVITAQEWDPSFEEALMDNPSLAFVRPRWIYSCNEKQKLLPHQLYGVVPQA

Row | Compound | Inhibition of end joining with Ligase I [1] | Inhibition of end joining with Ligase III/XRCC1 [2] | IC50 [3] [µM] | IC50 [4] [µM] | IC50 [5] [µM] | IC50 [6] [µM] | Tumor burden [7] | Tumor size ([7]; selected oral dose 10 mg/kg) | Production of B cells [8] | Production of T cells [8] | Course of serum level [9] | Tumor size ([7]; selected oral dose 15 mg/kg)
1 | Nc1nc(S)nc(O)c1/N=C/c1ccc([N+](=O)[O-])s1 [Compound 16, (E)-6-amino-2-mercapto-5-(((5-nitrothiophen-2-yl)methylene)amino)pyrimidin-4-ol] | no inhibition | inhibited end joining at highest concentrations of 500 and 1000 μM | 5.77 | 5.2 | 3.75 | 4.89 | reduced tumor burden | significant reduction in tumor size | no significant changes | no significant changes | continued to increase till 10 h | 
2 | Nc1nc(S)nc(O)c1/N=C/c1sc(Cl)nc1Cl [Compound 32, (E)-6-amino-5-(((2,4-dichlorothiazol-5-yl)methylene)amino)-2-mercaptopyrimidin-4-ol] | no inhibition | no significant inhibition | 3.83 | 2 | 0.879 | 1.88 | reduced tumor burden |  |  |  | became stabilized between 4 h and 6 h | significant reduction in tumor size
